Assay results from PMC11942486, “The Impact of a Quinone Scaffold on Thermo-TRPs Modulation by Dimethylheptyl Phytocannabinoids” (International Journal of Molecular Sciences, 2025).
Where “and” joins values, the source holds several entries; their conditions need not be identical. Equal entries are not always repeated. Where two headings read alike, the source gives them in different places.

Experiments:
[1] = target: T1, rat TRPV3 (Rattus norvegicus, UniProt Q4QYD9); test: Thermo-TRP assay: [Ca2+]i elevation (Fluo-4) in HEK-293 cells transfected with TRPV3; format: cell-based; details: for TRPV3 Efficacy (% Ionomycin 4 μM): agonist effect as % of ionomycin 4 μM, cells sensitized with 2-aminoethoxydiphenyl borate 100 μM; for IC50: antagonist/desensitizing, vs Thymol 100 μM; for EC50: half-maximal increase in [Ca2+]i, read-out: TRPV3 Potency EC50
T1 construct: expressed in transfected cells
T1 sequence (Q4QYD9 1-791): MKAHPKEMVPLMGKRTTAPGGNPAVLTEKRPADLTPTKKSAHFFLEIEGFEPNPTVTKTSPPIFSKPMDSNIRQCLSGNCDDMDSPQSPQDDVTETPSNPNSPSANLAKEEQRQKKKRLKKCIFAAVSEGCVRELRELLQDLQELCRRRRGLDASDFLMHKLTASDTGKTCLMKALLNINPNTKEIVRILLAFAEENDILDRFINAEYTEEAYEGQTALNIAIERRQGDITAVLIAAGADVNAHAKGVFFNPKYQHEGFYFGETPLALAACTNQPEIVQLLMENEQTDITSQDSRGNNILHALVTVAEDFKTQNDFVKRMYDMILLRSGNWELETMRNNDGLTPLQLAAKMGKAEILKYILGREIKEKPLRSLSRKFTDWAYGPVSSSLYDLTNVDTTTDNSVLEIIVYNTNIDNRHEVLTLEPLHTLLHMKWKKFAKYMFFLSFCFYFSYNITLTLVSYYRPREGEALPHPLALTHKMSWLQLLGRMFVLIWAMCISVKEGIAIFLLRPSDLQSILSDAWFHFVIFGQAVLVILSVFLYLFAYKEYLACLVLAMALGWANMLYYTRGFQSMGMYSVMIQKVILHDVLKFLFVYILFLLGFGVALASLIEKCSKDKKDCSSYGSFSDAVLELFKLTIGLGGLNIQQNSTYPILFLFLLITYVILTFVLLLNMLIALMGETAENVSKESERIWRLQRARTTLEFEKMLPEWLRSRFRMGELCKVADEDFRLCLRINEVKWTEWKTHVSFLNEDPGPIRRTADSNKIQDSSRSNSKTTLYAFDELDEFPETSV
Method: The compounds were tested on HEK-293 cells either stably transfected with rat TRPA1, TRPV2, TRPV3, TRPV4, TRPM8 or human TRPV1 or not-transfected, by performing a continuous monitoring of the intracellular calcium ([Ca^2+]i) elevation during the experiments, following the protocol already described. On the day of the experiment, the cells were loaded for 1 h in the dark at room temperature with the fluorescent probe Fluo-4 AM (4 μM in DMSO containing 0.02% Pluronic F-127). The cells were rinsed, resuspended in Tyrode’s solution (145 mM NaCl, 2.5 mM KCl, 1.5 mM CaCl2, 1.2 mM MgCl2, 10 mM D-glucose, and 10 mM HEPES, pH 7.4), and transferred to a quartz cuvette of a spectrofluorimeter (PerkinElmer LS50B; λEX = 488 nm, λEM = 516 nm) equipped with a PTP-1 fluorescence Peltier system (PerkinElmer Life and Analytical Sciences, Waltham, MA, USA) under continuous stirring. Cell fluorescence before and after the addition of various concentrations of tested compounds was measured, normalizing the effects against the response to ionomycin (IM, 4 μM). The effect on [Ca^2+]i in non-transfected HEK-293 cells were used as the baseline and subtracted from the values obtained from the transfected ones. The efficacy of the agonists was determined by normalizing their effect to the maximum Ca^2+ influx effect on [Ca^2+]i observed with application of 4μM ionomycin. The effects of TRPA1 agonists are expressed as a percentage of the effect obtained with 100 μM allyl isothiocyanate (AITC). In the TRPV3 assay, rat TRPV3-expressing HEK-293 cells were first sensitized with the structurally unrelated agonist 2-aminoethoxydiphenyl borate (100 μM). For the TRPM8, the experiments were carried out at 22 °C. The potency (EC50 values) is determined as the concentration required to produce half-maximal increases in [Ca^2+]i. Antagonist/desensitizing behavior is evaluated against the agonist of the TRP analyzed by adding the compounds directly in the quartz cuvette 5 min before stimulation of cells with the agonist (allylisothiocyanate (100 μM) for TRPA1, capsaicin (0.1 μM) for TRPV1, cannabidiol (2 μM) for TRPV2, thymol (100 μM) for TRPV3, GSK1016790A (10 nM) for TRPV4, and icilin (0.25 μM) for TRPM8). The IC50 value is expressed as the concentration exerting a half-maximal inhibition of the agonist effect, taking as 100% the effect on [Ca^2+]i exerted by the agonist alone. A dose-response curve fitting (sigmoidal dose-response variable slope) and parameter estimation were performed with Graph-Pad Prism 8 (GraphPad Software Inc., San Diego, CA, USA). All determinations were performed at least in triplicate.

[2] = target: T2, rat TRPM8 (Rattus norvegicus, UniProt Q8R455); test: Thermo-TRP assay: [Ca2+]i elevation (Fluo-4) in HEK-293 cells transfected with TRPM8; format: cell-based
T2 construct: expressed in transfected cells
Method: The compounds were tested on HEK-293 cells either stably transfected with rat TRPA1, TRPV2, TRPV3, TRPV4, TRPM8 or human TRPV1 or not-transfected, by performing a continuous monitoring of the intracellular calcium ([Ca^2+]i) elevation during the experiments, following the protocol already described. […] Cell fluorescence before and after the addition of various concentrations of tested compounds was measured, normalizing the effects against the response to ionomycin (IM, 4 μM). The effect on [Ca^2+]i in non-transfected HEK-293 cells were used as the baseline and subtracted from the values obtained from the transfected ones. The efficacy of the agonists was determined by normalizing their effect to the maximum Ca^2+ influx effect on [Ca^2+]i observed with application of 4μM ionomycin. The effects of TRPA1 agonists are expressed as a percentage of the effect obtained with 100 μM allyl isothiocyanate (AITC). In the TRPV3 assay, rat TRPV3-expressing HEK-293 cells were first sensitized with the structurally unrelated agonist 2-aminoethoxydiphenyl borate (100 μM). For the TRPM8, the experiments were carried out at 22 °C. The potency (EC50 values) is determined as the concentration required to produce half-maximal increases in [Ca^2+]i. […] A dose-response curve fitting (sigmoidal dose-response variable slope) and parameter estimation were performed with Graph-Pad Prism 8 (GraphPad Software Inc., San Diego, CA, USA). All determinations were performed at least in triplicate.

[3] = vs Icilin 0.25 μM, 22 °C, read-out: IC50 TRPM8

T2 sequence (Q8R455 whole entry): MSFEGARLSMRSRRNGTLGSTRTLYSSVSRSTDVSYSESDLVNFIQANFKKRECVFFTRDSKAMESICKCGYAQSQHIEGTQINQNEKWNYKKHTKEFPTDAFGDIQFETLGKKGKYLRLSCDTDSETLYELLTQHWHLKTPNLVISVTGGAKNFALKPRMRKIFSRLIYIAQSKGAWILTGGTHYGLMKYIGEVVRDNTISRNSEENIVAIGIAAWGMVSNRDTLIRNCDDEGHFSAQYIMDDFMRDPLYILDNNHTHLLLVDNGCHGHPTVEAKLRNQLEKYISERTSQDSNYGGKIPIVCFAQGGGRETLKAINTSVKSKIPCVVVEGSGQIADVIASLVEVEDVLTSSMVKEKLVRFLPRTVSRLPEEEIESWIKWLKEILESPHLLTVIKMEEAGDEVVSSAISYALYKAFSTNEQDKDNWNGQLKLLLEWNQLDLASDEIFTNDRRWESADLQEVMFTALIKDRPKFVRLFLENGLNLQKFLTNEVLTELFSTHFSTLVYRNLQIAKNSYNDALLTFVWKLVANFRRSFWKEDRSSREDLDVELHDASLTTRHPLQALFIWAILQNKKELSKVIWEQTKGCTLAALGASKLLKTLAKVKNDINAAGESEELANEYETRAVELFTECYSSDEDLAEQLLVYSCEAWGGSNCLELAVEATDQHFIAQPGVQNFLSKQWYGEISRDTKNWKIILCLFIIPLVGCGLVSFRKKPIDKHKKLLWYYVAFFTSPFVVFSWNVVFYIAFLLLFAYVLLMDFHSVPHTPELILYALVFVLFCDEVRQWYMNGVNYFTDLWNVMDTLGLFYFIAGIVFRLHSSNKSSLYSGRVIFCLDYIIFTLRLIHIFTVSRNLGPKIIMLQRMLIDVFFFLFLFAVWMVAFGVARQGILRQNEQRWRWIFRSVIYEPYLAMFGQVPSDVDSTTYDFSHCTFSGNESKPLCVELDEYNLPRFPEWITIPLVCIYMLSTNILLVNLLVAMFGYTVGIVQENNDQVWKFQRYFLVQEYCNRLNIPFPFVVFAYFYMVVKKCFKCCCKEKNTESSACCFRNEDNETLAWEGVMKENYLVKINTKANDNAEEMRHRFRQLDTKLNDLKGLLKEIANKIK

SMILES	TRPV3 Efficacy (% Ionomycin 4 μM) [1]	IC50 [1]	EC50 [1]	IC50 [2, 3]	IC50 [2]
C=C(C)[C@@H]1CCC(C)=C[C@H]1C1=C(O)C(=O)C(C(C)(C)CCCCCC)=CC1=O [5b]	64.3 ± 0.9%	760 ± 10 nM	460 ± 20 nM	1200 ± 100 nM	–
CCCCCCC(C)(C)C1=CC2=C(C(=O)C1=O)[C@@H]1CC(C)=CC[C@H]1C(C)(C)O2 [6b]	66.8 ± 2.2%	720 ± 80 nM	500 ± 100 nM	–	> 100000 nM
CCCCCCC(C)(C)C1=CC(=O)C(C/C=C(\C)CCC=C(C)C)=C(O)C1=O [7b, p-DMHCBGQ]	51.1 ± 1.0%	< 10000 nM and 8600 nM	1500 ± 200 nM	14900 ± 3900 nM	–
CCCCCCC(C)(C)C1=CC(=O)C2=C(OC(C)(CCC=C(C)C)C=C2)C1=O (stereo not shown) [8b]	37.55 ± 0.85%	38300 ± 2000 nM	13600 ± 1800 nM	> 100000 nM	–
